In US3962238A, “Ethers of n-propanol amine” (Centre Europeen de Recherches Mauvernay "CERM", priority 1972, dated 1976):
“Also recorded” adds a separate entry of the source. Structures can show the parent of a compound that is named as a salt.

Key:
Type in all cases: in vivo
[1] = Cardiovascular activity on the chloralose-anaesthetised, artificially respirated dog (coronary sinus output, Pv O2, contraction amplitude, arterial pressure, rate of heart-beat); settings: for AMPLITUDE OF VENTRICULAR CONTRACTION / ARTERIAL PRESSURE / CORONARY OUTPUT / RATE OF HEART-BEAT / SINUSAL Pv O2: maximum percentage variation relative to pre-treatment values
Procedure: The pharmacological activity of the compounds of the invention in the cardiovascular field was determined on the dog in the manner described below:
An incision is made in the right-hand chest wall of an animal, which has been anaesthetised with chloralose and given artificial respiration, to enable the blood from the venus sinus to be drawn off and the apparatus required to record the following parameters to be inserted in position:
a. Output of the coronary sinus;
b. Pv O2 of the blood from the coronary sinus; and
c. Amplitude of the contractions of the right ventricule.
At the same there were also measured:
d. Arterial pressure in a main carotid artery: and
e. The rate of heart-beat determined cardiotachometrically.
Table II which follows records the determinations made of the various parameters, the results being expressed as a maximum percentage variation relative to the pre-treatment values.

β-adrenergic receptors [2] = assay: Action on the β-adrenergic receptors: inhibition of cardiovascular effects of isoprenaline in anaesthetised dogs; settings: dog, compound 5 mg/kg intravenous
Procedure: (§1) A stimulating electrode was placed in position on the right stellar ganglion of dogs anaesthetised as described above and for which there were recorded:
(§2) a. The arterial pressure,
(§3) b. Ventricular inotropism (the amplitude of contraction of the right ventricle), and
(§4) c. The rate of heart-beat.
(§5) The chest of the animals were not open and they were breathing freely.
(§6) The β-adrenergic receptors, both cardiac and vascular, were stimulated by electrical stimulation of the right stellar ganglion or by intravenous injection with isoprenaline (5 μg/kg).

β-adrenergic receptors [3] = assay: Action on the β-adrenergic receptors: inhibition of cardiac effects of stimulation of the right stellar ganglion in anaesthetised dogs; settings: compound 5 mg/kg intravenous, average, dog
Procedure: It then seemed interesting, using compound No. 1, to seek the existence of an action on the β-adrenergic receptors in the manner outlined below:
as §1, §2, §3, §4, §5
as §6, with “μg/kg). The measurements were taken both before and after administration of compound No. 1 by the intravenous route in a dose of 5 mg/kg bodyweight.” for “μg/kg).”
The following Table III gives the average percentage inhibition of the cardiovascular effects of isoprenaline and of the cardiac effects of the stimulation of the right stellar ganglion.

[4] = isoprenaline 5 ug/kg intravenous, average

SMILES: CC(C)COCC(CN1CCCC1)N(Cc1ccccc1)c1ccccc1 (centres unmarked) [Compound 1, 1-(3-isobutoxy-2-(phenylbenzyl)-amino)-propyl-pyrrolidino-hydrochloride]
- AMPLITUDE OF VENTRICULAR CONTRACTION ([1]; 2.5 mg/kg intravenous): -0.7%
- ARTERIAL PRESSURE ([1]; 2.5 mg/kg intravenous): -39.8%
- CORONARY OUTPUT ([1]; 2.5 mg/kg intravenous): +51.2%
- RATE OF HEART-BEAT ([1]; 2.5 mg/kg intravenous): -28.6%
- SINUSAL Pv O2 ([1]; 2.5 mg/kg intravenous): +119.2%
- AMPLITUDE OF VENTRICULAR CONTRACTION ([1]; 5 mg/kg intravenous): -22.3%
- ARTERIAL PRESSURE ([1]; 5 mg/kg intravenous): -40.2%
- CORONARY OUTPUT ([1]; 5 mg/kg intravenous): +36.9%
- RATE OF HEART-BEAT ([1]; 5 mg/kg intravenous): -31.8%
- SINUSAL Pv O2 ([1]; 5 mg/kg intravenous): +120.8%
- oxygen content of the venous cardiac blood (in words) ([1]; intravenous): very considerable increase in the oxygen content of the venous cardiac blood
- effect on stimulation of the β-adrenergic receptors (in words) (β-adrenergic receptors [2]; isoprenaline or right stellar ganglion stimulation, 5 mg/kg): partial inhibiting effect; also recorded: inhibiting effects with respect to the stimulation of the β-adrenergic receptors
- PERCENTAGE INHIBITION OF Hypotension (β-adrenergic receptors [2]; [4]): -54%
- PERCENTAGE INHIBITION OF Positive inotropic effect (β-adrenergic receptors [2]; [4]): -46.5%
- PERCENTAGE INHIBITION OF Rate of Heart-beat (β-adrenergic receptors [2]; [4]): -32.7%
- PERCENTAGE INHIBITION OF Positive inotropic effect (β-adrenergic receptors [3]): -21.3%
- PERCENTAGE INHIBITION OF Rate of Heart-beat (β-adrenergic receptors [3]): -30%
